Test results reported in patent publication US10501479B2, “Benzenesulfonyl-asymmetric ureas and medical uses thereof” (HELSINN HEALTHCARE SA, priority 2016, dated 2019).

What was measured:
[1] = target: T1, GHSR-1a (HEK293/GHSR1a cell line) (Homo sapiens, UniProt Q92847); experiment: Ghrelin agonist potency (EC50) with calcium FLIPR assay; assay type: cell-based; conditions: HEK293/GHSR1a, read-out: Activity EC50/EMax: EC50 (ghrelin agonist potency)
T1 construct: expressed in transfected cells; host or cells: HEK293/GHSR1a cell line
Outline: (§1)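 Cells seeded 24 h before the run were loaded with calcium dye for 30-60 min at room temperature or 37° C. For agonism, compound was added at t=20 sec and the calcium signal followed for 2 minutes. For antagonism, compound plus ghrelin (10 nM) went on at t=20 sec, and IC50 reflected the drop in ghrelin response.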

[2] = target: T2, recombinant human ghrelin receptor (HEK293/GRLN) (Homo sapiens, UniProt Q92847); experiment: Ghrelin inverse agonist potency (EC50) with IP-1 (IP-One HTRF) assay; assay type: cell-based; conditions: IP-1 assay, HEK293/GRLN; read-out: Activity EC50 (ghrelin inverse agonist potency)
T2 construct: expressed in transfected cells
Outline: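 HEK293/GRLN cells were seeded 18-22 hours before the test, then exposed to compound in stimulation buffer for 1 hour at 37° C, 5% CO2. IP-1 was detected by IP-One HTRF (IP1-d2 plus Tb-cryptate, 1 hour RT), reading 620 and 665 nm; the inverse agonist EC50 was derived from this.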

[3] = Metabolic stability in mouse liver microsomes; assay type: in vitro ADME
Procedure: Metabolic Stability Study
The metabolic stability of compounds in human, dog, rat and mouse liver microsomes was performed according the experimental conditions reported below:
• a) Prepare the following 5 stock solutions: • 1. Test compound stock solutions: dilute 10 mM solution of dextromethorphan (Dtr) in DMSO, 10 mM solution of diphenhydramine (DPA) in DMSO, 10 mM solution of omeprazole (Ome) in DMSO, 10 mM solution of verapamil (Ver) in DMSO, and 10 mM of an inverse agonist compound in DMSO to 0.25 mM solution each with acetonitrile/water (70/30). • 2. Buffer: 100 mM potassium phosphate Buffer (PBS) at pH 7.4 • 3. Liver microsomes (20 mg/ml): Thaw in 37° C. water bath quickly • 4. 2000 μL: of NADPH regenerating system (1.3 mM). Place this system on ice before use:
• 5. […] The test compound concentration in the wells, measured by LC-MS/MS, represents the concentration at time=0. • f) To determine the test compound concentration when t≠0, pre-incubate the NADPH regenerating system and the incubation plate containing the remaining 320 μL of incubation mixture (microsomes protein and test compound) for 5 minutes at 37° C. • g) Start the incubation reaction by adding 80 μL NADPH regenerating system to each well containing the remaining 320 μL incubation mixture. • h) After 10 min., 30 min., and 90 min. of incubation at 37° C., transfer 100 μL of the incubation mixture (microsomes protein, test compound, and NADPH) into the wells of a stop plate pre-filled with 300 μL of the cold quench solution. Shake well. • i) Centrifuge the stop plate at 5000×g for 10 minutes. Collect and dilute the supernatant 3 times with distilled water. Sample and analyze the test compound concentration for all the wells by LC-MS/MS. Animal PK Studies via i.v. (intravenous), p.o. (orally) and s.c. (subcutaneous) administrations

[4] = Metabolic stability in human liver microsomes; assay type: in vitro ADME
Outline: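 Test compounds were incubated with liver microsomes in 100 mM potassium phosphate buffer, pH 7.4, at 37 °C, with reactions started by an NADPH regenerating system after a 5 min preincubation. Samples taken at 0, 10, 30 and 90 min were quenched cold, centrifuged, and parent remaining was quantified by LC-MS/MS.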

[5] = target: T1, GHSR-1a (HEK293/GHSR1a cell line); experiment: Ghrelin antagonist potency (IC50) with calcium FLIPR assay, ghrelin 10 nM; assay type: cell-based; conditions: HEK293/GHSR1a, ghrelin 10 nM, read-out: Activity IC50 (ghrelin antagonist potency)
Outline: as §1

T1 sequence (Q92847 whole entry): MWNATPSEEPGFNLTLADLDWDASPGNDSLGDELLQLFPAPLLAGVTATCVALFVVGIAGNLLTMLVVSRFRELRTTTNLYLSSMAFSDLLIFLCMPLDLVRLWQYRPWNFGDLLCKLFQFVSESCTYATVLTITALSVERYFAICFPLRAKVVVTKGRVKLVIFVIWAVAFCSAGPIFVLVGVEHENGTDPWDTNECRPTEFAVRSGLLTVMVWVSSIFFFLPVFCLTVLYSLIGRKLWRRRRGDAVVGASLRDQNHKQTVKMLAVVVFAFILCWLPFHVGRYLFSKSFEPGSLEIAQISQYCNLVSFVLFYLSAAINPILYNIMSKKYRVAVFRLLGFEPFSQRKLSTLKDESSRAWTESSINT
T2 sequence (Q92847 whole entry): as above

SMILES | EC50 [1] [nM] | EC50 [2] [nM] | Metabolic Stability Study M = mouse [3] [µL/min/mg] | Metabolic Stability Study H = human [4] [µL/min/mg] | IC50 [5] [nM]
C[C@H](NC(=O)Nc1ccc(S(=O)(=O)Cc2ccc3c(c2)CN(C)C3)cc1)c1ccccc1 [H1299, (S)-1-(4-(((2-methylisoindolin-5-yl)methyl)sulfonyl)phenyl)-3-(1-phenylethyl)urea] | > 30000 | 102 | 50.9 | 71.5 | 192
CC(NC(=O)Nc1ccc(S(=O)(=O)Cc2ccc3c(c2)CN(C)C3)cc1)c1cccc2ccccc12 (stereo not drawn) [H1302, 1-(4-(((2-methylisoindolin-5-yl)methyl)sulfonyl)phenyl)-3-(1-(naphthalen-1-yl)ethyl)urea] | > 30000 | 4.7 | 164.1 | 201.7 | 5.7
C[C@H](NC(=O)Nc1ccc(S(=O)(=O)Cc2ccc3c(c2)CCNCC3)cc1)c1ccccc1 [H1306, (S)-1-(1-phenylethyl)-3-(4-(((2,3,4,5-tetrahydro-1H-benzo[d]azepin-7-yl)methyl)sulfonyl)phenyl)urea] | > 30000 | 74.6 | 19.6 | 31.2 | 62
CC(NC(=O)Nc1ccc(S(=O)(=O)Nc2ccc3c(c2)CN(C)C3)cc1)c1ccccc1 (stereo not drawn) [H1308, N-(2-methylisoindolin-5-yl)-4-(3-(1-phenylethyl)ureido) benzenesulfonamide] | > 30000 | 31.2 | 38.5 | 49.4 | 23.5
C[C@H](NC(=O)Nc1ccc(S(=O)(=O)Cc2ccc3c(c2)CN(C)CC3)cc1)c1ccccc1 [H1311, (S)-1-(4-(((2-methyl-1,2,3,4-tetrahydroisoquinolin-7-yl)methyl)sulfonyl)phenyl)-3-(1-phenylethyl)urea] | > 30000 | 84.6 | 123.8 | 95.9 | 108
CN1Cc2ccc(CS(=O)(=O)c3ccc(NC(=O)NC4CCCc5ccccc54)cc3)cc2C1 (stereo not drawn) [H1312, 1-(4-(((2-methylisoindolin-5-yl)methyl)sulfonyl)phenyl)-3-(1,2,3,4-tetrahydronaphthalen-1-yl)urea] | > 30000 | 85.8 | 117.5 | 93.5 | 69
CC(NC(=O)Nc1ccc(S(=O)(=O)Cc2ccc3c(c2)CN(C)C3)cc1F)c1ccccc1 (stereo not drawn) [H1317, 1-(2-fluoro-4-(((2-methylisoindolin-5-yl)methyl)sulfonyl)phenyl)-3-(1-phenylethyl)urea] | > 30000 | 18.2 | 102.8 | 96.7 | 48.4
CC(NC(=O)Nc1ccc(S(=O)(=O)Cc2ccc3c(c2)CN(C2COC2)C3)cc1)c1ccccc1 (stereo not drawn) [H1319, 1-(4-(((2-(oxetan-3-yl)isoindolin-5-yl)methyl)sulfonyl)phenyl)-3-(1-phenylethyl)urea] | > 30000 | 12.5 | > 500 | 195.6 | 41
CC(NC(=O)Nc1ccc(S(=O)(=O)Cc2cc3c(s2)CN(C)C3)cc1)c1ccccc1 (stereo not drawn) [H1321, 1-(4-(((5-methyl-5,6-dihydro-4H-thieno[2,3-c]pyrrol-2-yl)methyl)sulfonyl)phenyl)-3-(1-phenylethyl)urea] | > 30000 | 23.2 | 81.9 | 85.3 | 47.5
C[C@H](NC(=O)Nc1ccc(S(=O)(=O)Cc2ccc3c(c2)CCN(C)CC3)cc1)c1ccccc1 [H1322, (S)-1-(4-(((3-methyl-2,3,4,5-tetrahydro-1H-benzo [d]azepin-7-yl)methyl)sulfonyl)phenyl)-3-(1-phenylethyl)urea] | > 30000 | 81.5 | 171.1 | 129 | 112
CC(NC(=O)Nc1ccc(S(=O)(=O)Cc2cnc3c(c2)CN(C)C3)cc1)c1ccccc1 (stereo not drawn) [H1323, 1-(4-(((6-methyl-6,7-dihydro-5H-pyrrolo[3,4-b]pyridin-3-yl)methyl)sulfonyl)phenyl)-3-(1-phenylethyl)urea] | > 30000 | 102 | 58.5 | 84.1 | 243
COc1cccc(C(C)NC(=O)Nc2ccc(S(=O)(=O)Cc3ccc4c(c3)CN(C)C4)cc2)c1 (stereo not drawn) [H1326, 1-(1-(3-methoxyphenyl)ethyl)-3-(4-(((2-methylisoindolin-5-yl)methyl)sulfonyl)phenyl)urea] | > 30000 | 6.9 | 60.5 | 129.5 | 9.8
COc1cccc(C(C)NC(=O)Nc2ccc(S(=O)(=O)Cc3ccc4c(c3)CN(C)C4)cc2)c1 (stereo not drawn) [H1327, 1-(1-(3-methoxyphenyl)ethyl)-3-(4-(((2-methylisoindolin-5-yl)methyl)sulfonyl)phenyl)urea] | > 30000 | 5.5 | 144.8 | 165.3 | 5.6
CC(NC(=O)Nc1ccc(S(=O)(=O)Nc2ccc3c(c2)CCN(C)C3)cc1)c1ccccc1Cl (stereo not drawn) [H1334, 4-(3-(1-(2-chlorophenyl)ethyl)ureido)-N-(2-methyl-1,2,3,4-tetrahydroisoquinolin-6-yl)benzenesulfonamide] | > 30000 | 8.2 | 97.9 | 109.8 | 9.18
C[C@@H](NC(=O)Nc1ccc(S(=O)(=O)Nc2ccc3c(c2)CN(C)C3)cc1)c1ccccc1 [H1337, (R)-N-(2-methylisoindolin-5-yl)-4-(3-(1-phenylethyl)ureido) benzenesulfonamide] | > 30000 | 10.5 | 39.2 | 58.6 | 24.1
COCCN1Cc2ccc(CS(=O)(=O)c3ccc(NC(=O)NC(C)c4ccccc4)cc3)cc2C1 (stereo not drawn) [H1338, 1-(4-(((2-(2-methoxyethyl)isoindolin-5-yl)methyl)sulfonyl)phenyl)-3-(1-phenylethyl)urea] | > 30000 | 6.5 | 242.1 | 106.9 | 7.6
CC(NC(=O)Nc1ccc(S(=O)(=O)Cc2ccc3c(c2)CN(C2CCOC2)C3)cc1)c1ccccc1.O=C(O)C(F)(F)F (stereo not drawn) [H1340, 1-(1-phenylethyl)-3-(4-(((2-(tetrahydrofuran-3-yl)isoindolin-5-yl)methyl)sulfonyl)phenyl)urea] | > 30000 | 3.3 | > 500 | 282.4 | 4.7
CC(NC(=O)Nc1ccc(S(=O)(=O)Cc2ccc3c(c2)CCN(C)C3)cc1)c1ccccc1F (stereo not drawn) [H1342, 1-(1-(2-fluorophenyl)ethyl)-3-(4-(((2-methyl-1,2,3,4-tetrahydroisoquinolin-6-yl)methyl)sulfonyl)phenyl)urea] | > 30000 | 7.9 | 118.4 | 80.1 | 17.4
